{"source": "patent US7618958B2", "about": "“Stereospecific anxiolytic and anticonvulsant agents with reduced muscle-relaxant, sedative-hypnotic and ataxic effects” (WISYS Technology Foundation, Inc., priority 2004, dated 2009)", "test_system": "male Wistar rats", "assay": "Elevated plus-maze in rats", "assay_type": "in vivo, rat", "details": "for Open Entries / Closed Entries / Total Distance Travelled (m) / Total Entries / % Open Time / % Open Entries / Time in open arms / Time in closed arms: rats, mean; for Open Entries: SOLVENT mean 2.57; for Closed Entries: SOLVENT mean 7.14; for Total Distance Travelled (m): SOLVENT mean 9.30; for Total Entries: SOLVENT mean 9.71; for % Open Time: SOLVENT mean 20.43; for % Open Entries: SOLVENT mean 25.57; for Time in open arms: SOLVENT mean 50.29; for Time in closed arms: SOLVENT mean 196.29", "experimental": "Except where noted, the methods used were those of Miroslav M., et al., (2004) Pharmacology, Biochemistry and Behavior 79: 279-290. Experiments were carried out on male Wistar rats (Military Farm, Belgrade, Serbia and Montenegro), weighing 200-240 g. All procedures in the study conformed to EEC Directive 86/609 and were approved by the Ethical Committee on Animal Experimentation of the Medical Faculty in Belgrade. The rats were housed in transparent plastic cages, six animals per cage, and had free access to pelleted food and tap water before and after drug administration. The temperature of the animal room was 22±1° C., the relative humidity 40-70%, the illumination 120 1× and the 12/12-h light/dark period (light on at 06:00 h). All handling and testing took place during the light portion of the cycle. Throughout the study the animals were used only once.\nMidazolam and flumazenil were generously donated from F. Hoffman-La Roche (Basel, Switzerland). Zolpidem was purchased from Toronto Research Chemicals (North York, Canada) and DMCM from Research Biochemicals (Natick, Mass., USA). All drugs were dissolved/suspended with the aid of sonication in a solvent containing 85% distilled water, 14% propylene glycol and 1% Tween 80™, and were administered intraperitoneally, in a volume of 1 ml/kg, 20 min before testing. Doses are expressed as the base forms of the drugs. In the cases of combined treatment, agonists were administered at separate sites, immediately after the antagonist. Each animal received a total volume of 2 ml/kg of compounds tested or appropriate vehicles, at two different injection sites.\nThe test apparatus was constructed of sheet metal, with a black rubber floor. It consisted of a maze elevated to a height of 50 cm with two open (50×10 cm) and two enclosed arms (50×10×40 cm), connected by junction area (central platform) measured 10×10 cm. Although the floor was rubberized, a ledge of sheet metal (0.3 cm high) surrounding the open arms was added, to avoid rats falling off. The illumination in the experimental room consisted of one red neon tube fixed on the ceiling, giving light intensity of 10 1× on the surface of the arms. The experiments were carried out during the diurnal phase (between 08:00 and 12:00 h). At the beginning of the experiment, rats were placed in the centre of the maze, facing one of the enclosed arms and observed for 5 min. The observer sat in the same room 1 m from the maze. After each trial, the maze was cleaned with dry and wet towels. Throughout the study, the number of rats per treatment group was 8-14. Each experiment was run over 4 consecutive days, with three control rats per day; as there was no difference in plus-maze activity among control subgroups, they were pooled in a single control group (n=12).\nAll numerical data presented in the figures were given as the mean±S.E.M. Each dose-response curve (agonist or antagonist alone or agonist+antagonist) was assessed by a one-way ANOVA. If the ANOVA was significant, each treatment condition was compared with the appropriate solvent control by a Dunnett's test (a=0.05). In case of significant effect in the number of enclosed arm entries, an analysis of covariance (ANCOVA) was performed in the anxiety-related parameters using the number of enclosed arm entries as covariate. Interactions between the agonists and antagonists were analyzed separately with a two-way ANOVA [factors: agonist dose versus cotreatment (an antagonist or saline)]; pairwise comparisons for the assessment of the antagonist influence on the agonist effects were conducted by Tukey's test, one of the methods recommended even in the absence of an overall significant F-test (Wilcox R R. New designs in analysis of variance. Annu Rev Psychol 1987; 38: 29-60). Statistical analyses were performed with commercial statistical software for PC, Stat for Windows R. 5.0.", "key": {"[1]": {"details": "SH-053-S 20 mg/kg ip, N 6, t test p = 0.668"}, "[2]": {"details": "SH-053-S 30 mg/kg ip, N 7, t test p ≦ 0.05"}}}
{"smiles": "C#Cc1ccc2c(c1)C(c1ccccc1)=NC(C)c1c(C(=O)OCC)ncn1-2", "note": "(stereo not drawn) [SH-053-S—CH3, 8-Ethynyl-4-methyl-6-phenyl-4H-2,5,10b-triaza-benzo[e]azulene-3-carboxylic acid ethyl ester]", "values": [{"measurement": "Open Entries", "setting": "[1]", "value": 3.00}, {"measurement": "Closed Entries", "setting": "SH-053-S 20 mg/kg ip, N 6, t test p = 0.059", "value": 5.33}, {"measurement": "Total Distance Travelled (m)", "setting": "SH-053-S 20 mg/kg ip, N 6, t test p = 0.145", "value": 7.49, "unit": "m"}, {"measurement": "Total Entries", "setting": "SH-053-S 20 mg/kg ip, N 6, t test p = 0.349", "value": 8.33}, {"measurement": "% Open Time", "setting": "SH-053-S 20 mg/kg ip, N 6, t test p = 0.426", "value": 27.50, "unit": "%"}, {"measurement": "% Open Entries", "setting": "SH-053-S 20 mg/kg ip, N 6, t test p = 0.265", "value": 34.17, "unit": "%"}, {"measurement": "Time in open arms", "setting": "[1]", "value": 61.83}, {"measurement": "Time in closed arms", "setting": "SH-053-S 20 mg/kg ip, N 6, t test p ≦ 0.05", "value": 144.67}, {"measurement": "Open Entries", "setting": "[2]", "value": 4.57}, {"measurement": "Closed Entries", "setting": "SH-053-S 30 mg/kg ip, N 7, t test p = 0.481", "value": 6.29}, {"measurement": "Total Distance Travelled (m)", "setting": "SH-053-S 30 mg/kg ip, N 7, t test p = 0.910", "value": 9.48, "unit": "m"}, {"measurement": "Total Entries", "setting": "SH-053-S 30 mg/kg ip, N 7, t test p = 0.525", "value": 10.86}, {"measurement": "% Open Time", "setting": "[2]", "value": 36.00, "unit": "%"}, {"measurement": "% Open Entries", "setting": "[2]", "value": 43.71, "unit": "%"}, {"measurement": "Time in open arms", "setting": "[2]", "value": 93.71}, {"measurement": "Time in closed arms", "setting": "SH-053-S 30 mg/kg ip, N 7, t test p = 0.116", "value": 164.71}, {"measurement": "effects on locomotor activity (summary of FIG. 1, FIG. 2, Tables 3-6)", "setting": "at the dose tested", "value": "no measurable effects on locomotor activity"}, {"measurement": "anxiolytic activity (summary of FIG. 1, FIG. 2, Tables 3-6)", "setting": "rat, in vivo", "value": "has anxiolytic activity"}]}
